Read-outs that look alike come from different tables or passages of the source. One block for each compound: values may come before it.
Legend:
[1] = biological target: T1, baculovirus-expressed ALK (Homo sapiens, UniProt Q9UM73); assay: ALK Kinase Assay (ELISA-type, time-resolved fluorescence); format: biochemical
T1 construct: host or cells: baculovirus expression system
How it was run: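 Wells were coated with phospholipase C-γ at 10 μg/mL in Tris-buffered saline. Adding 30 ng/ml enzyme started the reaction, which ran at 37° C for 15 minutes before Eu-N1 PT66 antibody detection. Percent inhibition versus log10 concentration gave IC50 by variable-slope fit.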

[2] = biological target: T2, c-Met (cytoplasmic domain) (Homo sapiens, UniProt P08581); assay: c-Met Kinase Assay (same methods as for ALK, with modifications); format: biochemical
T2 construct: 10 ng/mL c-Met (cytoplasmic domain, Invitrogen Corporation #PV3143); purchased Invitrogen Corporation PV3143
T2 sequence (P08581 956-1390 limits assumed): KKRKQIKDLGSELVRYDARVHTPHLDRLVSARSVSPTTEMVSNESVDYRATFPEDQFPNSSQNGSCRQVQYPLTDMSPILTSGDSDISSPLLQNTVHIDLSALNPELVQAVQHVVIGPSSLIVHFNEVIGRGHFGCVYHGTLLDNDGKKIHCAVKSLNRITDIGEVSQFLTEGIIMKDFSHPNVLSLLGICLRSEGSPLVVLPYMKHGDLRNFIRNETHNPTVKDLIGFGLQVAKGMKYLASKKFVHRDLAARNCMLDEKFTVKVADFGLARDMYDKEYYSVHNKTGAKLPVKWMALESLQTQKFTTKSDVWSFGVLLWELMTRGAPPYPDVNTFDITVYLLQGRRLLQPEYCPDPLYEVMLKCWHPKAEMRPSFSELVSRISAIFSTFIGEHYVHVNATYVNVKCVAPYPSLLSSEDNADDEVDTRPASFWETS
How it was run: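 IC50 values were fitted by variable-slope sigmoidal regression of percent inhibition against log compound concentration. Phosphorylation was read with Eu-N1 PT66 antibody after a 15 min, 37 °C reaction. The reaction was initiated with 10 ng/mL c-Met cytoplasmic domain on wells coated with 10 μg/mL PLC-γ in TBS.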

[3] = ALK kinase inhibition, 1 μM ATP, read-out: ALK Activity
[4] = c-Met kinase inhibition, 1 μM ATP, read-out: cMet Activity
[5] = 1 μM ATP (Km level), 30 ng/ml ALK, 37° C., 15 minutes, read-out: ALK Activity (ALK kinase inhibition, IC50 class)
[6] = 1 μM ATP (Km level), 10 ng/mL c-Met, read-out: cMet Activity (c-Met kinase inhibition, IC50 class)
[7] = 1 μM ATP (Km level), read-out: ALK Activity (ALK Kinase Inhibition, IC50)
[8] = 1 μM ATP (Km level), read-out: cMet Activity (c-Met Kinase Inhibition, IC50)
[9] = ALK kinase inhibition, 1 μM ATP (Km level), read-out: ALK Activity
[10] = c-Met kinase inhibition, 1 μM ATP (Km level), read-out: cMet Activity

T1 sequence (Q9UM73 19-1620): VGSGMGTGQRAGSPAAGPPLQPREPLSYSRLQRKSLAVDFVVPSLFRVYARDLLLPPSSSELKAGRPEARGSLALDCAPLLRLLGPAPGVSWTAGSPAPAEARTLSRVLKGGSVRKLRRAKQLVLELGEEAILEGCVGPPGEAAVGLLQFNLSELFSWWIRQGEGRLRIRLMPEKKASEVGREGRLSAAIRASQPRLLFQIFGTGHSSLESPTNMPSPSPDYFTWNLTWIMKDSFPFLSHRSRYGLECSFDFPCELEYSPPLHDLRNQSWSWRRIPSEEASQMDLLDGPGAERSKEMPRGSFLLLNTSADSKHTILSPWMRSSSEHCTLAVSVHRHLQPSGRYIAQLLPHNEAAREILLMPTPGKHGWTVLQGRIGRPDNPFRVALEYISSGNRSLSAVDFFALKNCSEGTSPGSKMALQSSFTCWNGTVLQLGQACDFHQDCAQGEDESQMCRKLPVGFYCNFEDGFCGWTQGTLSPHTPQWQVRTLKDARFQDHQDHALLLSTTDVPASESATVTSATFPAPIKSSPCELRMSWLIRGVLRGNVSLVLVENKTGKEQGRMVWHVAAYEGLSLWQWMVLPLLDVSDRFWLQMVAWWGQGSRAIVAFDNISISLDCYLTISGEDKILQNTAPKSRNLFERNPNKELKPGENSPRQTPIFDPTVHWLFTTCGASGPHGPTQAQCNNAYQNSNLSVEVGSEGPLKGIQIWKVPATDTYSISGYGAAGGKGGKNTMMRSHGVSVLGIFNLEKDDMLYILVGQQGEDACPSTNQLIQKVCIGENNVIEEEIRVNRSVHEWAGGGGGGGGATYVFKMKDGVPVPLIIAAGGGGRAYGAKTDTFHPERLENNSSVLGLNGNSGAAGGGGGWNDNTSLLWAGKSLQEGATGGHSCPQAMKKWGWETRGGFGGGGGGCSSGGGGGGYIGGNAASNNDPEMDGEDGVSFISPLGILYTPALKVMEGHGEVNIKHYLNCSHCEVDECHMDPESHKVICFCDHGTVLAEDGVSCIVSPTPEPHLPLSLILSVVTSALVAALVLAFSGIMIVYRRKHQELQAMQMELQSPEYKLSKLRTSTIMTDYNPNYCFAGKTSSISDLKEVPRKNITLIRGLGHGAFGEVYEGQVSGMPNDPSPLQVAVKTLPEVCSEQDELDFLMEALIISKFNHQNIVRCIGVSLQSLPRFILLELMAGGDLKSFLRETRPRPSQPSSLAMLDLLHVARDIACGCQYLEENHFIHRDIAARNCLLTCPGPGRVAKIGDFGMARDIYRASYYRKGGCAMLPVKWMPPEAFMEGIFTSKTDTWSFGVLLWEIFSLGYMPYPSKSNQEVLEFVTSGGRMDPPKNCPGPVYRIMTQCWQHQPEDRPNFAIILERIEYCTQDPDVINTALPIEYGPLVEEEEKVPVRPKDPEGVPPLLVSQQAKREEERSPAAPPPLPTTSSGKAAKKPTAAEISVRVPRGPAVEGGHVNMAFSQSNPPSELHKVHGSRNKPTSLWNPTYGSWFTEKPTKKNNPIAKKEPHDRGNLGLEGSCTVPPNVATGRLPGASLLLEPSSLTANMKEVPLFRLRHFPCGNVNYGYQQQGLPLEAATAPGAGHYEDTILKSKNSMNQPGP

Structure (SMILES): CCOc1ccccc1Nc1nc(Nc2cc3c(cc2OC)CCN(CC(=O)N(C)C)CC3)ncc1Cl [Example 1144, 2-{7-[5-Chloro-4-(2-ethoxy-phenylamino)-pyrimidin-2-ylamino]-8-methoxy-1,2,4,5-tetrahydro-benzo[d]azepin-3-yl}-N,N-dimethyl-acetamide]
IC50 [1, 5]: < 100 nM | IC50 [2, 6]: > 10000 nM

Structure (SMILES): CNC(=O)c1ccccc1Nc1nc(Nc2ccc3c(c2)CN(CCOC(C)=O)CCS3)ncc1Cl [Example 527, Acetic acid 2-{2-[5-Chloro-4-(2-methylcarbamoyl-phenylamino)-pyrimidin-2-ylamino]-6,7-dihydro-9H-5-thia-8-aza-benzoylcyclohepten-8-yl}-ethyl ester]
IC50 [1, 7]: < 100 nM | IC50 [2, 8]: < 100 nM

Structure (SMILES): CC(C)NC(=O)c1ccccc1Nc1nc(Nc2ccc3c(c2)C(C)(C)CCC(=O)N3)ncc1Cl [Example 340]
IC50 [1, 9]: < 100 nM | IC50 [2, 10]: 100 to 1000 nM

Structure (SMILES): COc1cc2c(cc1Nc1ncc(Cl)c(Nc3ccccc3-c3nccn3C)n1)CCN(CC(=O)N(C)C)CC2 [Example 999, 2-(7-{5-Chloro-4-[2-(1-methyl-1H-imidazol-2-yl)-phenylamino]-pyrimidin-2-ylamino}-8-methoxy-1,2,4,5-tetrahydro-benzo[d]azepin-3-yl)-N,N-dimethyl-acetamide]
IC50 [1, 7]: < 100 nM | IC50 [2, 8]: > 10000 nM

Structure (SMILES): CN1C(=O)CCCc2ccc(Nc3ncc(Cl)c(NC4C5C=CC(C5)C4C(N)=O)n3)cc21 (stereo not drawn) [Example 110, (2-exo,3-exo)-3-[5-Chloro-2-(1-methyl-2-oxo-2,3,4,5-tetrahydro-1H-benzo[b]azepin-8-ylamino)pyrimidin-4-ylamino]-bicyclo[2.2.1]hept-5-ene-2-carboxylic acid amide]
IC50 [1, 9]: < 100 nM | IC50 [2, 10]: 100 to 1000 nM

Structure (SMILES): COc1cc(N2CCOCC2)ccc1Nc1nc(Nc2ccc3c(c2OC)CCC(N2CCCC(O)C2)CC3)ncc1Cl (mixture of isomers) [Example 913, 1-{2-[5-Chloro-4-(2-methoxy-4-morpholin-4-yl-phenylamino)-pyrimidin-2-ylamino]-1-methoxy-6,7,8,9-tetrahydro-5H-benzocyclohepten-7-yl}-piperidin-3-ol]
IC50 [1, 7]: < 100 nM | IC50 [2, 8]: > 10000 nM

Structure (SMILES): COc1c(Nc2ncc(Cl)c(N[C@H]3[C@@H](C(N)=O)[C@@H]4C=C[C@H]3C4)n2)ccc2c1CCC(=O)CC2 [Example 869, (1S,2S,3R,4R)-3-[5-Chloro-2-(1-methoxy-7-oxo-6,7,8,9-tetrahydro-5H-benzocyclohepten-2-ylamino)-pyrimidin-4-ylamino]-bicyclo[2.2.1]hept-5-ene-2-carboxylic acid amide]
IC50 [1, 7]: < 100 nM | IC50 [2, 8]: > 10000 nM

Structure (SMILES): CNC(=O)c1ccccc1Nc1nc(Nc2ccc3c(c2)NCCNC3=O)ncc1Cl [Example 411, 2-[5-Chloro-2-(5-oxo-2,3,4,5-tetrahydro-1H-benzo[e][1,4]diazepin-8-ylamino)-pyrimidin-4-ylamino]-N-methylbenzamide]
IC50 [1, 9]: < 100 nM | IC50 [2, 10]: < 100 nM

Now from value to compound:

IC50 [1, 3]: 1000 to 10000 nM | IC50 [2, 4]: 100 to 1000 nM
Structure (SMILES): Cc1nnc(-c2cccc(F)c2Nc2nc(Nc3ccc4c(c3)CCOC(=O)N4C)ncc2Cl)o1 [Example 1787, 2-{5-Chloro-4-[2-fluoro-6-(5-methyl-[1,3,4]oxadiazol-2-yl)-phenylamino]-pyrimidin-2-ylamino}-5-methyl-8,9-dihydro-5H-7-oxa-5-aza-benzocyclohepten-6-one]

IC50 [1, 5]: < 100 nM | IC50 [2, 6]: > 10000 nM
Structure (SMILES): CCN1C(=O)C(NC(=O)C(F)(F)F)CCc2c1ccc(Nc1ncc(Cl)c(Nc3ccccc3S(=O)(=O)N(C)C)n1)c2OC (centres unmarked) [Example 1334, N-{7-[5-Chloro-4-(2-dimethylsulfamoyl-phenylamino)-pyrimidin-2-ylamino]-1-ethyl-6-methoxy-2-oxo-2,3,4,5-tetrahydro-1H-benzo[b]azepin-3-yl}-2,2,2-trifluoro-acetamide]

IC50 [1, 3]: < 100 nM | IC50 [2, 4]: > 10000 nM
Structure (SMILES): COc1cc2c(cc1Nc1ncc(Cl)c(N[C@H]3[C@@H](C(N)=O)[C@@H]4C=C[C@H]3C4)n1)CCN(C[C@H](C)O)CC2 [Example 1558, (1S,2S,3R,4R)-3-{5-Chloro-2-[3-((S)-2-hydroxy-propyl)-8-methoxy-2,3,4,5-tetrahydro-1H-3-benzazepin-7-ylamino]-pyrimidin-4-ylamino}-bicyclo[2.2.1]hept-5-ene-2-carboxylic acid amide]

IC50 [1, 3]: < 100 nM | IC50 [2, 4]: > 10000 nM
Structure (SMILES): COc1cc2c(cc1Nc1ncc(Cl)c(Nc3ccccc3S(=O)(=O)N3CC[C@@H](O)C3)n1)CCN(C[C@@H](C)O)CC2 [Example 1557, (R)-1-(2-{5-Chloro-2-[3-((R)-2-hydroxy-propyl)-8-methoxy-2,3,4,5-tetrahydro-1H-3-benzazepin-7-ylamino]-pyrimidin-4-ylamino}-benzenesulfonyl)-pyrrolidin-3-ol]

IC50 [1, 3]: 100 to 1000 nM | IC50 [2, 4]: 100 to 1000 nM
Structure (SMILES): CNC(=O)c1cnn(C)c1Nc1nc(Nc2ccc3c(c2)CC(=O)N(C)CC3)ncc1Cl [Example 1821, 5-[5-Chloro-2-(3-methyl-4-oxo-2,3,4,5-tetrahydro-1H-benzo[d]azepin-7-ylamino)-pyrimidin-4-ylamino]-1-methyl-1H-pyrazole-4-carboxylic acid methylamide]

IC50 [1, 3]: 100 to 1000 nM | IC50 [2, 4]: > 10000 nM
Structure (SMILES): CS(=O)(=O)N[C@@H]1CCCC[C@H]1Nc1nc(Nc2cc(F)cc3c2OCCNC3=O)ncc1Cl [Example 1683, N-{(1R,2R)-2-[5-Chloro-2-(7-fluoro-5-oxo-2,3,4,5-tetrahydro-benzo[f][1,4]oxazepin-9-ylamino)-pyrimidin-4-ylamino]-cyclohexyl}-methanesulfonamide]

IC50 [1, 5]: 100 to 1000 nM | IC50 [2, 6]: 1000 to 10000 nM
Structure (SMILES): O=C1CCCc2ccc(Nc3ncc(Cl)c(Nc4c(F)cccc4OC4CCOCC4)n3)cc2N1 [Example 1281, 8-{5-Chloro-4-[2-fluoro-6-(tetrahydro-pyran-4-yloxy)-phenylamino]-pyrimidin-2-ylamino}-1,3,4,5-tetrahydro-1-benzazepin-2-one]

IC50 [1, 3]: < 100 nM | IC50 [2, 4]: 100 to 1000 nM
Structure (SMILES): COCCN1CCc2ccc(Nc3ncc(Cl)c(Nc4ccccc4S(=O)(=O)N(C)C)n3)cc2CC1 [Example 1686, 2-{5-Chloro-2-[3-(2-methoxy-ethyl)-2,3,4,5-tetrahydro-1H-benzo[d]azepin-7-ylamino]-pyrimidin-4-ylamino}-N,N-dimethyl-benzenesulfonamide]

IC50 [1, 3]: 100 to 1000 nM | IC50 [2, 4]: 100 to 1000 nM
Structure (SMILES): CNC(=O)c1ccccc1Nc1nc(Nc2ccc3c(c2)NC(=O)CN(Cc2ccccc2)C3)ncc1Cl [Example 1859, 2-[2-(4-Benzyl-2-oxo-2,3,4,5-tetrahydro-1H-benzo[e][1,4]diazepin-8-ylamino)-5-chloro-pyrimidin-4-ylamino]-N-methyl-benzamide]

IC50 [1, 5]: 100 to 1000 nM | IC50 [2, 6]: 1000 to 10000 nM
Structure (SMILES): COCCN1CCc2ccc(Nc3ncc(Cl)c(N[C@@H]4CCC[C@@H](N(CC#N)S(C)(=O)=O)C4)n3)cc2CC1 (relative stereo) [Example 1382, rel-N-((1R,3R)-3-{5-Chloro-2-[3-(2-methoxy-ethyl)-2,3,4,5-tetrahydro-1H-benzo[d]azepin-7-ylamino]-pyrimidin-4-ylamino}-cyclohexyl)-N-cyanomethyl-methanesulfonamide]

IC50 [1, 3]: < 100 nM | IC50 [2, 4]: > 10000 nM
Structure (SMILES): CCN1CCNCc2cc(OC)c(Nc3ncc(Cl)c(N[C@H]4[C@@H](C(N)=O)[C@@H]5C=C[C@H]4C5)n3)cc21 [Example 1460, (1S,2S,3R,4R)-3-[5-Chloro-2-(1-ethyl-7-methoxy-2,3,4,5-tetrahydro-1H-benzo[e][1,4]diazepin-8-ylamino)-pyrimidin-4-ylamino]-bicyclo[2.2.1]hept-5-ene-2-carboxylic acid amide]

Reference: patent publication US8148391B2 (Cephalon, Inc., priority 2006, dated 2012)
